Laboratory results published in patent US8822463B2, “Methylcyclohexane derivatives and uses thereof” (Sk Biopharmaceuticals Co., Ltd., priority 2010, dated 2014).
Counter-ions that a name gives are not always drawn. Like-named read-outs stand apart in the source and are kept apart here.

How the values were obtained:
[1] = system: neuropathic pain (mechanical allodynia) in rats with caudal nerve damage; test: Pain relief test using animal model (caudal nerve damage neuropathic pain, mechanical allodynia); format: in vivo; conditions: ip, rat, von Frey, reference concentration 30 mg/kg, read-out: Pain test results (% MPE, 50% tail withdrawal threshold)
Procedure: Male rats (Sprague-Dawley, 150-200 g, 6-week old, Orient Bio Co., Ltd) were purchased and acclimated in an animal chamber for one week. The animal chamber was alternately turned on and off at a time interval of 12 hours, at a temperature of 22 to 25° C., and in a relative humidity of 40-60%, and water and feed was supplied ad libitum to the rats.
The rats were placed in a round acryl container (5.5 15, 6.5 18 cm, which varied according to the size of body) and only the tails thereof were taken out of the container and placed on a plate. To confirm a pain behavior corresponding to a mechanical stimulus, an up-down method (J. Neurosci. Methods 53:55-63) was performed using a von Frey filament so as to measure “50% tail withdrawal threshold.
During all the steps before surgery, anesthesia was maintained with a mixed gas including 2-3% enflurane and 95% oxygen.
The compounds were each prepared as a solution form by using 5% DMSO, 5% Cremophore, and 90% distilled water on a volumetric basis. Each of the solutions was intraperitoneally administered in a volume of 3 ml per kg of a rat. The concentration of the compounds was controlled according to a compound and the concentration of reference was 30 mg/kg. […]
Anti-allodynic effects of the compounds were described as mean±SEM, and were compared each other by referring to “% MPE (the percentage of maximum possible effect),” and analyzed using one-way ANOVA and Bonferroni's t-test. […] [% MPE=(the threshold with respect to time after the drug treatment−the threshold at 0 hr)/(15−the threshold at 0 hr)×100]

[2] = system: LPS-induced NO production in mouse monocytes (RAW); test: LPS-induced NO production inhibition test, mouse monocytes (RAW); format: cell-based; conditions: Monocyte, RAW cells, 20 ng/ml LPS, 24 hours, Griess reagent
Procedure: (§1) Mouse monocytes (RAW) and mouse microglia (BV2) cells were cultured on a 96-well transparent plate (Nunc) in such a way that each of the wells contained 60,000 and 35,000 cells respectively. After 18 hours, when stabilized, the cells were treated with lipopolysaccharide (Sigma, USA, Cat No. L2630) in a morbid state derived from 20 ng/ml of Escherichia coli O111:B4 and 4 different concentrations (50 uM, 12.5 uM, 3.1 uM, and 0.8 uM) of the compounds synthesized according to Examples 1 to 55. Then, the cells were cultured for 24 hours, and a concentration of increased NO was measured. The NO concentration was determined by measuring absorption at a wavelength of 540 nm after a Griess reagent including 0.1% N-(1-naphthyl)ethylenediamine dihydrochloride, 1% sulfanilamide, and 2.5% phosphoric acid were added thereto.

[3] = system: LPS-induced NO production in mouse microglia (BV2); test: LPS-induced NO production inhibition test, mouse microglia (BV2); format: cell-based; conditions: BV-2, BV2 cells, 20 ng/ml LPS, 24 hours, Griess reagent
Procedure: as §1

[4] = at 1 hour after intraperitoneal administration
[5] = at 4 hours after intraperitoneal administration

Row | Compound | inhibition in vivo [1, 4] [%] | IC50 [2] [µM] | IC50 [3] [µM] | inhibition in vivo [1, 5] [%]
1 | O=C(NCc1ccncc1)OC1CCC(CNC(=O)N2CCCC2)CC1 (stereo not shown) [Example 54, pyridin-4-ylmethyl-carbamic acid 4-{[(pyrrolidine-1-carbonyl)-amino]-methyl}-cyclohexyl ester] | 10.5 | 48.7 | > 50 | 
2 | O=C(NC1CCC(COC(=O)N2CCCC2)CC1)OCc1ccccn1 (stereo not shown) [Example 40, pyrrolidine-1-carboxylic acid 4-(pyridin-2-ylmethoxycarbonylamino)-cyclohexylmethyl ester] |  | > 50 | > 50 | 11
3 | O=C(Nc1ccncc1)OC1CCC(COC(=O)N2CCCC2)CC1 (stereo not shown) [Example 20, pyrrolidine-1-carboxylic acid 4-(pyridin-4-ylcarbamoyloxy)-cyclohexylmethyl ester] |  | 50 | 37.9 | 22
4 | O=C(Nc1ccccn1)OC1CCC(COC(=O)N2CCCC2)CC1 (stereo not shown) [Example 21, pyrrolidine-1-carboxylic acid 4-(pyridin-2-ylcarbamoyloxy)-cyclohexylmethyl ester] | 35.2 | 15.9 | 44.8 | 
5 | O=C(NCc1ccc(Cl)nc1)OC1CCC(COC(=O)N2CCCC2)CC1 (stereo not shown) [Example 17, pyrrolidine-1-carboxylic acid 4-(6-chloro-pyridin-3-ylmethylcarbamoyloxy)-cyclohexylmethyl ester] | 5.8 | 29.5 | 12.5 | 
6 | O=C(Nc1ccnc(Cl)c1)OC1CCC(COC(=O)N2CCCC2)CC1 (stereo not shown) [Example 23, pyrrolidine-1-carboxylic acid 4-(2-chloro-pyridin-4-ylcarbamoyloxy)-cyclohexylmethyl ester] |  | 28.6 | > 50 | 18.7
7 | O=C(NCc1cccnc1)OC1CCC(COC(=O)N2CCCC2)CC1 (stereo not shown) [Example 8, pyrrolidine-1-carboxylic acid 4-(pyridin-3-ylmethylcarbamoyloxy)-cyclohexylmethyl ester] | 11 | > 50 | 5.8 | 
8 | O=C(NCc1ccnc(Cl)c1)OC1CCC(COC(=O)N2CCCC2)CC1 (stereo not shown) [Example 16, pyrrolidine-1-carboxylic acid 4-(2-chloro-pyridin-4-ylmethylcarbamoyloxy)-cyclohexylmethyl ester] |  | 27.9 | 10.8 | 16.4
9 | Cc1cccc(CNC(=O)OC2CCC(COC(=O)N3CCCC3)CC2)n1 (stereo not shown) [Example 15, pyrrolidine-1-carboxylic acid 4-(6-methyl-pyridin-2-ylmethylcarbamoyloxy)-cyclohexylmethyl ester] | 29.2 | 19.9 | 19.4 | 
10 | O=C(NC1CCC(COC(=O)N2CCCC2)CC1)OCc1ccncc1 (stereo not shown) [Example 42, pyrrolidine-1-carboxylic acid 4-(pyridin-4-ylmethoxycarbonylamino)-cyclohexylmethyl ester] |  | 50 | > 50 | 57
11 | O=C(NCc1cccnc1Cl)OC1CCC(COC(=O)N2CCCC2)CC1 (stereo not shown) [Example 18, pyrrolidine-1-carboxylic acid 4-(2-chloro-pyridin-3-ylmethylcarbamoyloxy)-cyclohexylmethyl ester] | 22.5 | 5.7 | 18.3 | 
12 | O=C(Nc1cccc[n+]1[O-])OC1CCC(COC(=O)N2CCCC2)CC1 (stereo not shown) [Example 25, pyrrolidine-1-carboxylic acid 4-(1-oxy-pyridin-2-ylcarbamoyloxy)-cyclohexylmethyl ester] |  | 24.9 | 15.5 | 
13 | COc1ccc(CNC2CCC(COC(=O)N3CCCC3)CC2)cc1 (stereo not shown) [Example 38, pyrrolidine-1-carboxylic acid 4-(4-methoxy-benzylamino)-cyclohexylmethyl ester HCl salt] |  | 35.8 | > 50 | 
14 | O=C(OC1CCC(COC(=O)N2CCCC2)CC1)c1ccccn1 (stereo not shown) [Example 30, pyridine-2-carboxylic acid 4-(pyrrolidine-1-carbonyloxymethyl)-cyclohexyl ester] |  | > 50 | > 50 | 
15 | O=C(NCCc1ccc[n+]([O-])c1)OC1CCC(COC(=O)N2CCCC2)CC1 (stereo not shown) [Example 6, pyrrolidine-1-carboxylic acid 4-[2-(1-oxy-pyridin-3-yl)-ethylcarbamoyloxy]-cyclohexylmethyl ester] |  | 41.2 | > 50 | 
16 | O=C(NCc1ccccn1)OC1CCC(COC(=O)N2CCCCC2)CC1 (stereo not shown) [Example 26] |  | 46.1 | 36.8 | 
17 | O=C(NCc1ccncc1)OC1CCC(CNC(=O)C2CCCC2)CC1 (stereo not shown) [Example 55, pyridin-4-ylmethyl-carbamic acid 4-[(cyclopentanecarbonyl-amino)-methyl]-cyclohexyl ester] |  | 25.6 | > 50 | 
18 | O=C(NCc1ccccn1)OC1CCC(COC(=O)N2CCCC2)CC1 (stereo not shown) [Example 7, pyrrolidine-1-carboxylic acid 4-(pyridin-2-ylmethylcarbamoyloxy)-cyclohexylmethyl ester] |  | > 50 | > 50 | 
19 | O=C(NCCc1cccc[n+]1[O-])OC1CCC(COC(=O)N2CCCC2)CC1 (stereo not shown) [Example 5, pyrrolidine-1-carboxylic acid 4-[2-(1-oxy-pyridin-2-yl)-ethylcarbamoyloxy]-cyclohexylmethyl ester] |  | > 50 | 48.7 | 
